Test [1] addresses T1, triacylglycerol hydrolase (TGH) (Mus musculus, UniProt Q8VCT4).
T1 construct: from tissue
T1 sequence (Q8VCT4 19-565): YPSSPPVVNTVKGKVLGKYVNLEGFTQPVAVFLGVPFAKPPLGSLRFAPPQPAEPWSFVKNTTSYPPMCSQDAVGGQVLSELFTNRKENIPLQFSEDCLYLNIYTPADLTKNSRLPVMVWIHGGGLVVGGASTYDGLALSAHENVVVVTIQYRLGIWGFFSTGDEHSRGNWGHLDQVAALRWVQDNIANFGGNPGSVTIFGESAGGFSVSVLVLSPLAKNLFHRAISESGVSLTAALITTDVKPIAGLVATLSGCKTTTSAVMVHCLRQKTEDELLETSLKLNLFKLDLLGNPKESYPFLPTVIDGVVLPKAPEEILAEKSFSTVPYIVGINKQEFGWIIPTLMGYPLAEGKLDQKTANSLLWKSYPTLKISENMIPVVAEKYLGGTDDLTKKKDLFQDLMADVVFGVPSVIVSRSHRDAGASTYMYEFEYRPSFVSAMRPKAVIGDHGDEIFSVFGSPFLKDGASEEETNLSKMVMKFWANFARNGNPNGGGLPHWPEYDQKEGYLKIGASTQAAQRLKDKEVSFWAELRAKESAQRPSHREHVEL
As to the kind of experiment: Proteome-wide serine hydrolase selectivity screen, competition with RPFP active site labeling. To be noted: inhibition of RPFP labeling. Type of test: binding. The text has this: (§1) Serine hydrolases represent one of the largest classes of enzymes collectively comprising approximately 3% of the predicted Drosophila proteome. Subclasses include serine proteases, lipases, esterases, amidases, and transacetylases.
Biotinylated (B) or fluorescently-tagged (rhodamine, R) PEG-fluorophosphonate (BPFP or RPFP, respectively) have been used to isolate and identify (BPFP) or quantitate (RPFP) proteome serine hydrolases through selective, irreversible active site labeling (Kidd, D., et al., 2001; Liu, Y., et al., 1999). Extending this to the assessment of inhibitor selectivity required incubation of the proteome with RPFP in the presence of systematically varied concentrations of inhibitor followed by SDS-PAGE to detect serine hydrolases sensitive to the inhibitor (Leung, D., et al., 2003). A resulting inhibition of RPFP active site labeling correlated with inhibitor affinity for the target and permitted the simultaneous assessment of competitive enzymes.
Two enzymes emerged from the screen as competitive targets for the oxadiazole ketone compounds detailed herein: triacylglycerol hydrolase (TGH) and an uncharacterized membrane-bound hydrolase that lacks known substrates and function (KIAA1363) (Kidd, D., et al., 2001; Liu, Y., et al., 1999; Leung, D., et al., 2003).

The target in test [2] is T2, FAAH (Mus musculus, UniProt O08914).
T2 construct: from tissue
T2 sequence (O08914 1-579): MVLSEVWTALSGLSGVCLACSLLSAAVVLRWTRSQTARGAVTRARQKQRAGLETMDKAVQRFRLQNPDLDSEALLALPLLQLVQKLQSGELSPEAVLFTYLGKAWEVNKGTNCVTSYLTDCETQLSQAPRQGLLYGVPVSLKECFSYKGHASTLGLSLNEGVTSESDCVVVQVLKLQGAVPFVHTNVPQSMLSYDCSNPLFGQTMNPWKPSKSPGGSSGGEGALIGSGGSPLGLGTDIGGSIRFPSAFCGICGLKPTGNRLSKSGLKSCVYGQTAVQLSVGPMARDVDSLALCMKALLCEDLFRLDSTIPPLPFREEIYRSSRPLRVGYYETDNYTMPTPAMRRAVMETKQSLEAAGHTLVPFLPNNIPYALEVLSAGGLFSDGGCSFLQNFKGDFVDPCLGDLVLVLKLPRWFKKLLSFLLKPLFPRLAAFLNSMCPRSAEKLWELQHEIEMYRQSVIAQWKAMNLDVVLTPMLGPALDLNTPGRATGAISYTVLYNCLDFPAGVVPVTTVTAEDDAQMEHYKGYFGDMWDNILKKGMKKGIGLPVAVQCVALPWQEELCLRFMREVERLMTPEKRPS
Described as above. To be noted: inhibition of RPFP labeling. Format: binding.
From the text: as §1

In the next test the target is T3, KIAA1363 (Mus musculus, UniProt Q8BLF1).
T3 construct: from tissue
T3 sequence (Q8BLF1 1-408): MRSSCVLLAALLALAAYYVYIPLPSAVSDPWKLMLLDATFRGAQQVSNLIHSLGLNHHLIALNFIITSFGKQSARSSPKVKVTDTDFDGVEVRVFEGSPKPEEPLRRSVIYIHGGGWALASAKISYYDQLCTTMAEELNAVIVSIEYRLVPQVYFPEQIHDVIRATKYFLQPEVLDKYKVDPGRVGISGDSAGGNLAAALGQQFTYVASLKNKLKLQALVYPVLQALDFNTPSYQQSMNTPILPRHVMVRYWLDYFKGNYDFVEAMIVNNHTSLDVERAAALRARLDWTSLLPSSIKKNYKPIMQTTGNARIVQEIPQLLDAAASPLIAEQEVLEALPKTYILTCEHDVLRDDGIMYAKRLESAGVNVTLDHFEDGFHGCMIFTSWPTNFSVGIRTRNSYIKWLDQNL
Described as above. Type of test: binding. To be noted: inhibition of RPFP labeling, read-out: KIAA IC50.
From the text: as §1

Test [3] deals with T4, FAAH (Rattus norvegicus, UniProt P97612).
T4 construct: using a solubilized liver plasma membrane extract containing FMH; from tissue; host or cells: liver plasma membrane (solubilized extract)
T4 sequence (P97612 1-579): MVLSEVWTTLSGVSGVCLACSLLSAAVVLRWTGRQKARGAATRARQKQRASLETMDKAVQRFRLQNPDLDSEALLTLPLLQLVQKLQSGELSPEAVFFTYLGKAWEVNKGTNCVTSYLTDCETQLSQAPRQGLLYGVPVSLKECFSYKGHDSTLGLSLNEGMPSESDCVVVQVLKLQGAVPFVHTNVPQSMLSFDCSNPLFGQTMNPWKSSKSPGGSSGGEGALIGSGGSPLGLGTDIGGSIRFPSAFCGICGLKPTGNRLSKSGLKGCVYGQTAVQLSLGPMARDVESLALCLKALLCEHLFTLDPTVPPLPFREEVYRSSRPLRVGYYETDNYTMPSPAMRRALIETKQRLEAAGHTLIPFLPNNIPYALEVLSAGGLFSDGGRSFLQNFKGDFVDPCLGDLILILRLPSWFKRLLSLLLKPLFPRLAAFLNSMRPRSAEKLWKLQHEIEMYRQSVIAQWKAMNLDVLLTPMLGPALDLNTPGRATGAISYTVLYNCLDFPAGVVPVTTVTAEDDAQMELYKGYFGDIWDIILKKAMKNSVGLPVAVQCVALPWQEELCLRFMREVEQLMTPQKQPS
As to the kind of experiment: FAAH enzyme assay, hydrolysis of 14C-oleamide by solubilized liver plasma membrane extract. Type of test: biochemical. On the procedure: All enzyme assays were performed at 20-23° C. using a solubilized liver plasma membrane extract containing […] in a reaction buffer of 125 mM Tris, 1 mM EDTA, 0.2% glycerol, 0.02% Triton X-100, 0.4 mM HEPES, pH 9.0 buffer (Patricelli, M. P. et al. Bioorg. Med. Chem. Lett. 1998, 8, 613-618; Patterson, J. E., et al. J. Am Chem. Soc. 1996, 118, 5938-5945). The initial rates of hydrolysis were monitored by following the breakdown of ^14C-oleamide to oleic acid as described previously (Cravatt, B. F. et al. Science 1995, 268, 1506-1509; Patricelli, M. P. et al., 1998). The inhibition was reversible, non time-dependent. Linear least squares fits were used for all reaction progress curves and R^2 values were consistently >0.97. IC50 values were determined from the inhibition observed at 3-5 different test compound concentrations (from three or more trials at each concentration) using the formula IC50=[I]/[(K0/Ki)−1], where K0 is the control reaction rate without inhibitor and Ki is the rate with test compound at concentration [I] (Conde-Frieboes, K., et al. J. Am. Chem. Soc. 1996, 118, 5519-5525). Ki values were determined by the Dixon Method (x-intercepts of weighted linear fits of [I] versus 1/rate plots at constant substrate concentration, which were converted to Ki values using the formula Ki=−xint/[1+[S]/Km]).

The subject of test [4] is rats. To be noted: WO 02/087569; cited from earlier work.
In test [5] the test system is rats. To be noted: WO 02/087569; cited from earlier work. The source holds these as a separate data set.
For test [6], the system named is rats. To be noted: cited from earlier work.
Test [7] concerns rats. To be noted: WO 04/033652; cited from earlier work.
Test [8] addresses T5, FAAH (Homo sapiens, UniProt O00519).
T5 sequence (O00519 1-579): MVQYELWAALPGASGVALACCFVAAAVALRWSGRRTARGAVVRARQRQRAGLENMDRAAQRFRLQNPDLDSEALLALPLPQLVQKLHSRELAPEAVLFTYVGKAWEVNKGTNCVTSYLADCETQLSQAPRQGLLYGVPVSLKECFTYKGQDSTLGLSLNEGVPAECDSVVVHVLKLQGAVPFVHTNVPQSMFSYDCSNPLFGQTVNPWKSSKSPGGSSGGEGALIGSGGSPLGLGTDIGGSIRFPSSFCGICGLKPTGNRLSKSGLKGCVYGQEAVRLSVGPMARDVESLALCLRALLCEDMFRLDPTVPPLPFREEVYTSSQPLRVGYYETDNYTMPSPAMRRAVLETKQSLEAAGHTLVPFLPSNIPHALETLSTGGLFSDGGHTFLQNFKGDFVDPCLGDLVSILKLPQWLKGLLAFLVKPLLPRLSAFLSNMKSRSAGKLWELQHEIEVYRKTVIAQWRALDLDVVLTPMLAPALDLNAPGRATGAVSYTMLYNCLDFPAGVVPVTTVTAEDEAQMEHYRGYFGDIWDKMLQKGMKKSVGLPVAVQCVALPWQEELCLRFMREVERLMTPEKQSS
To be noted: cited from earlier work.

[9] abbreviates: Table 1, Dixon method, 14C-oleamide substrate, pH 9.0, 20-23° C., read-out: Ki.
The mark [10] stands for this setting: Table 2 (repeats the enzyme assay Ki), read-out: FAAH Ki.

Each structure is given as a SMILES string. Like-named read-outs stand apart in the source and are kept apart here.

`O=C(CCCCCCc1ccccc1)c1nnc(-c2cccnc2)o1` [Example 9, 7-Phenyl-1-[5-(pyridin-3-yl)-1,3,4-oxadiazol-2-yl]-heptan-1-one]: the figures for the IC50 (in test [1]; on FAAH [2]; on KIAA1363) were 100 nM, 20 nM and greater than 100000 nM, respectively. Further, the inhibition constant Ki (usually the equilibrium dissociation constant of an inhibitor or competing ligand from its target) at FAAH [3] (setting [9]) came out at 1 nM.

Regarding `CCCCCCCC/C=C\CCCCCCCC(=O)c1nnc(-c2ccccc2)o1` [Example 7, 1-(5-Phenyl-1,3,4-oxadiazol-2-yl)-octadec-9-en-1-one], the inhibitory constant (Ki) at FAAH [3] (setting [9]) was 16 nM.

For `O=C(CCCCCCc1ccccc1)c1nnc(-c2ccco2)o1` [Example 11], the IC50 (in general, the concentration that inhibits the measured activity by half) in test [1] is 80 nM; at FAAH [2] it was 1 nM; on KIAA1363, greater than 100000 nM.

Regarding `Cc1nc(-c2ccccc2)c(-c2ccccc2)n1CCCCCCNC(=O)Oc1ccccc1F` [BMS-1], the “analgesic effect, Hargraves test” value with rats [4] is recorded as “analgesic effect”. Further, in the test with rats [5], the “analgesic effect, Chung spinal nerve ligation model” value is recorded as “analgesic effect”.

`O=C(CCCCCCc1ccccc1)c1nnc(-c2ccccn2)o1` [Example 1, 7-Phenyl-1-[5-(pyridin-2-yl)-1,3,4-oxadiazol-2-yl]-heptan-1-one]: the 50% inhibitory concentration (IC50) worked out at 140 nM in test [1], 1 nM on FAAH [2] and 50000 nM at KIAA1363.

In the case of `CCCCCCCC/C=C\CCCCCCCC(=O)c1nnc(-c2ccccn2)o1` [Example 5, 1-[5-(Pyridin-2-yl)-1,3,4-oxadiazol-2-yl]-octadec-9-en-1-one], the inhibitory constant (Ki) at FAAH [3] (setting [9]) came out at 3 nM.

`O=C(CCCCCCc1ccccc1)c1nnc(-c2ccncc2)o1` [Example 10, 7-Phenyl-1-[5-(pyridin-4-yl)-1,3,4-oxadiazol-2-yl]-heptan-1-one]: the figures for the IC50 (in test [1]; on FAAH [2]; on KIAA1363) were 30 nM, 20 nM and greater than 100000 nM, respectively. Further, the Ki on FAAH [3] (setting [9]) came to 1 nM.

For `O=C(CCCCCCc1ccccc1)c1nnc(-c2ccccc2)o1` [Example 6, 7-Phenyl-1-(5-phenyl-1,3,4-oxadiazol-2-yl)-heptan-1-one], the IC50 in test [1] was 250 nM; at FAAH [2], 25 nM; on KIAA1363 it was greater than 100000 nM. Besides, the inhibition constant (Ki) on FAAH [3] (setting [9]) and at FAAH [3] (setting [10]) was 2 nM in each case.

For the compound `O=C(CCCCCCCCc1ccccc1)c1nnc(-c2ccccn2)o1` [Example 4, 9-Phenyl-1-[5-(pyridin-2-yl)-1,3,4-oxadiazol-2-yl]-nonan-1-one], the results for the IC50 (in test [1]; on FAAH [2]; at KIAA1363) were 500 nM, 0.8 nM and 3000 nM, respectively. The Ki on FAAH [3] (setting [9]) and at FAAH [3] (setting [10]) was 0.83 nM throughout.

Take `O=C(CCCCCc1ccccc1)c1nnc(-c2ccccn2)o1` [Example 2, 6-Phenyl-1-[5-(pyridin-2-yl)-1,3,4-oxadiazol-2-yl]-hexan-1-one]: the half-inhibitory concentration (IC50) in [1] was 30 nM; at FAAH [2], 4 nM; on KIAA1363 it was 90000 nM. For the same compound, the inhibition constant (Ki) on FAAH [3] (setting [9]) was found to be 0.85 nM.

With `O=C(CCCCCCc1ccccc1)c1ncc(-c2ccccn2)o1` [OL-135], the “analgesic efficacy/activity in hot plate test” value with rats [6] is recorded as “analgesic activity”. Also, the “analgesic activity in tail emersion test” value with rats [7] is recorded as “analgesic activity”. For the same compound, the FAAH inhibition entry at FAAH [8] was “potent inhibitor”.

Consider `O=C(CCCCCCCc1ccccc1)c1nnc(-c2ccccn2)o1` [Example 3, 8-Phenyl-1-[5-(pyridin-2-yl)-1,3,4-oxadiazol-2-yl]-octan-1-one], for which the IC50 in test [1] turned out to be 200 nM; at FAAH [2], 0.6 nM; at KIAA1363, 60000 nM. At FAAH [3] (setting [9]), the Ki turned out to be 0.77 nM.

Values taken from patent US7351724B2, “Oxadiazole ketone inhibitors of fatty acid amide hydrolase” (The Scripps Research Institute, priority 2004, dated 2008).
